From PubChem BioAssay AID2060906 (Molecular Pharmacology Branch, DTP, NCI, 2025)

Test system: 485176-168-R4-J1-PDC complex spheroid growth
Assay: Anticancer human tumor 485176-168-R4-J1-PDC patient-derived pancreatic adenocarcinoma cell line growth inhibition [RAS]
Conditions: for IC50: curve of first compound; for viability, T/C: stronger effect = lower value
How it was run: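 Tumour cells grown as complex spheroids with HUVEC endothelial cells and mesenchymal stem cells, treated with RAS pathway inhibitor combinations. Each agent spans half-log steps from near clinical Cmax, or 10 microM where Cmax is unknown.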

[1] = second compound 0.000949 µM, first compound 0.0316 µM
[2] = second compound 0.000949 µM, first compound 0.1 µM
[3] = second compound 0.000949 µM, first compound 0.316 µM
[4] = second compound 0.000949 µM, first compound 1 µM
[5] = second compound 0.003 µM, first compound 0.0316 µM
[6] = second compound 0.003 µM, first compound 0.1 µM
[7] = second compound 0.003 µM, first compound 0.316 µM
[8] = second compound 0.003 µM, first compound 1 µM
[9] = second compound 0.00949 µM, first compound 0.0316 µM
[10] = second compound 0.00949 µM, first compound 0.1 µM
[11] = second compound 0.00949 µM, first compound 0.316 µM
[12] = second compound 0.00949 µM, first compound 1 µM
[13] = second compound 0.03 µM, first compound 0.0316 µM
[14] = second compound 0.03 µM, first compound 0.1 µM
[15] = second compound 0.03 µM, first compound 0.316 µM
[16] = second compound 0.03 µM, first compound 1 µM
[17] = second compound 0.0949 µM, first compound 0.0316 µM
[18] = second compound 0.0949 µM, first compound 0.1 µM
[19] = second compound 0.0949 µM, first compound 0.316 µM
[20] = second compound 0.0949 µM, first compound 1 µM
[21] = second compound 0.3 µM, first compound 0.0316 µM
[22] = second compound 0.3 µM, first compound 0.1 µM
[23] = second compound 0.3 µM, first compound 0.316 µM
[24] = second compound 0.3 µM, first compound 1 µM
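Also: spheroids exposed to compounds for seven days before readout.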
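For viability, T/C in this document: luminescence viability expressed relative to DMSO vehicle wells set as 100%.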

CC(Nc1ccc2c(c1)OCCn1cc(N3C(=O)OCC3C(F)F)nc1-2)C(N)=O (centres undefined) + CCn1c(-c2cc(N3CCN(C)CC3)cnc2C(C)OC)c2c3cc(ccc31)-c1csc(n1)CC(NC(=O)C1CC1C)C(=O)N1CCCC(N1)C(=O)OCC(C)(C)C2
IC50 (second compound 0.000949 µM): > 10000 nM
IC50 (second compound 0.003 µM): > 10000 nM
IC50 (second compound 0.00949 µM): 7940 nM
IC50 (second compound 0.03 µM): 7650 nM
IC50 (second compound 0.0949 µM): 2110 nM
IC50 (second compound 0.3 µM): > 10000 nM
viability, T/C [1]: 100%
viability, T/C [2]: 91.9%
viability, T/C [3]: 71.8%
viability, T/C [4]: 79.8%
viability, T/C (second compound 0.000949 µM, first compound 3.16 µM): 70.5%
viability, T/C (second compound 0.000949 µM, first compound 10 µM): 51.1%
viability, T/C [5]: 92.8%
viability, T/C [6]: 74.8%
viability, T/C [7]: 73.7%
viability, T/C [8]: 72%
viability, T/C (second compound 0.003 µM, first compound 3.16 µM): 61.3%
viability, T/C (second compound 0.003 µM, first compound 10 µM): 47%
viability, T/C [9]: 81.5%
viability, T/C [10]: 72.7%
viability, T/C [11]: 76.9%
viability, T/C [12]: 76.1%
viability, T/C (second compound 0.00949 µM, first compound 3.16 µM): 62.2%
viability, T/C (second compound 0.00949 µM, first compound 10 µM): 46.7%
viability, T/C [13]: 75.9%
viability, T/C [14]: 78.5%
viability, T/C [15]: 69.3%
viability, T/C [16]: 60.5%
viability, T/C (second compound 0.03 µM, first compound 3.16 µM): 58%
viability, T/C (second compound 0.03 µM, first compound 10 µM): 48.1%
viability, T/C [17]: 66.9%
viability, T/C [18]: 83.7%
viability, T/C [19]: 77.1%
viability, T/C [20]: 51.9%
viability, T/C (second compound 0.0949 µM, first compound 3.16 µM): 56.8%
viability, T/C (second compound 0.0949 µM, first compound 10 µM): 41.2%
viability, T/C [21]: 75.6%
viability, T/C [22]: 72.3%
viability, T/C [23]: 57.6%
viability, T/C [24]: 57.7%
viability, T/C (second compound 0.3 µM, first compound 3.16 µM): 51.3%
viability, T/C (second compound 0.3 µM, first compound 10 µM): 51.2%

O=C(c1ccc(F)c(F)c1Nc1ccc(I)cc1F)N1CC(O)([C@@H]2CCCCN2)C1 + CCn1c(-c2cc(N3CCN(C)CC3)cnc2C(C)OC)c2c3cc(ccc31)-c1csc(n1)CC(NC(=O)C1CC1C)C(=O)N1CCCC(N1)C(=O)OCC(C)(C)C2
IC50 (second compound 0.000949 µM): 116 nM
IC50 (second compound 0.003 µM): 90.2 nM
IC50 (second compound 0.00949 µM): 33 nM
IC50 (second compound 0.03 µM): 22.9 nM
IC50 (second compound 0.0949 µM): 14.5 nM
IC50 (second compound 0.3 µM): < 3.16 nM
viability, T/C (second compound 0.000949 µM, first compound 0.00316 µM): 87.1%
viability, T/C (second compound 0.000949 µM, first compound 0.01 µM): 62.7%
viability, T/C [1]: 65.1%
viability, T/C [2]: 51%
viability, T/C [3]: 43.8%
viability, T/C [4]: 34.1%
viability, T/C (second compound 0.003 µM, first compound 0.00316 µM): 85.9%
viability, T/C (second compound 0.003 µM, first compound 0.01 µM): 75.5%
viability, T/C [5]: 63.8%
viability, T/C [6]: 48.5%
viability, T/C [7]: 38.8%
viability, T/C [8]: 35.2%
viability, T/C (second compound 0.00949 µM, first compound 0.00316 µM): 75.3%
viability, T/C (second compound 0.00949 µM, first compound 0.01 µM): 56.6%
viability, T/C [9]: 51.7%
viability, T/C [10]: 45.9%
viability, T/C [11]: 36.1%
viability, T/C [12]: 35%
viability, T/C (second compound 0.03 µM, first compound 0.00316 µM): 62.5%
viability, T/C (second compound 0.03 µM, first compound 0.01 µM): 59.3%
viability, T/C [13]: 45.2%
viability, T/C [14]: 38.8%
viability, T/C [15]: 31.3%
viability, T/C [16]: 31.4%
viability, T/C (second compound 0.0949 µM, first compound 0.00316 µM): 65.4%
viability, T/C (second compound 0.0949 µM, first compound 0.01 µM): 56.9%
viability, T/C [17]: 36.5%
viability, T/C [18]: 37.2%
viability, T/C [19]: 30.9%
viability, T/C [20]: 25.7%
viability, T/C (second compound 0.3 µM, first compound 0.00316 µM): 48.6%
viability, T/C (second compound 0.3 µM, first compound 0.01 µM): 44.4%
viability, T/C [21]: 36.6%
viability, T/C [22]: 28.6%
viability, T/C [23]: 28.8%
viability, T/C [24]: 25.9%
